Source: US20250031697A1, “METHODS AND COMPOSITIONS TO PREVENT PLANT PESTS AND PATHOGENS” (Impello Biosciences, Inc., priority 2021, published 2025)
Several values for one entry are separate records, joined by “and”; a condition that tells them apart may be missing. Equal values may be shown once.

Legend:
Assay type in all cases: in vivo
Botrytis = experiment: Field trial, MDJ foliar spray on 'Maverick' strawberries, Botrytis incidence on berries; settings: MDJ approx. 5 mM, 50 gallons per acre, two foliar sprays
Procedure: Methyl dihydrojasmonate (MDJ) was applied to fields of strawberry to investigate the efficacy of MDJ in preventing Botriytis disease. A composition comprising 22.6% w/v MDJ, 49.8% v/v TWEEN-20, and water was diluted at a rate of 32 oz. (1 liter) per 50 gallons of water (approximately a 5 mM solution of MDJ). The composition was then applied (at a rate of 50 gallons per acre) to an acre of ‘Maverick’ strawberries grown in Watsonville, CA on Aug. 18, 2021 and again on Sep. 2, 2021 using an electrostatic backpack sprayer (foliar spray). Plants were harvested in October 2021. MDJ plants were compared to strawberries treated with the grower standard; a rotation of Pristine® (pyraclostrobin and boscalid), Merivon® (pyraclostrobin), Luna® (fluopyram and trifloxystrobin), and Elevate® (fenhexamid). […] Out of four replicates of 10 plants each, the average incidence of Botrytis on berries in the MDJ treated acre was 11%, compared to 18.75% in the grower standard population.

Botrytis cinerea = experiment: Hemp inoculated with Botrytis cinerea, visual disease score 0-5 at harvest; settings: 8 replicates
Procedure: Culturing Botrytis cinerea: A Botrytis cinerea isolate was cultured onto potato-dextrose agar (PDA). It was resisolated by taking a mycelial plug from the edge of actively growing cultures every 2-3 weeks to maintain active growing culture. It was maintained at 20° C. under continuous light (˜58 pEin m^−2 s^−1).
Inoculating hemp: The inoculum was prepared by flooding a full grown B. cinerea PDA plate with DI water and 0.1% Tween-20 to create a suspension of fungal spores. Spore count was quantified.
In the first inoculation, a suspension of 1.2×10^4 spores of B. cinerea/mL was created, and 1.5 mL was applied to the top cola/inflorescence of each plant. Hemp was inoculated in the first week of flowering, with application to the underdeveloped inflorescences.
In the second inoculation, a suspension of 1.5×10^5 spores of B. cinerea/mL was created, and sucrose was added to 1% concentration, and the plants were sprayed until drip using a backpack sprayer.
Inoculated plants were placed in a growth chamber or controlled growth environment with a constant temperature of 20-25° C. and 50-70% relative humidity.
Treatment Conditions: Treatments comprising 1 mM or 5 mM jasmonate (MDJ) were applied alone or alongside a biological (Continuum™). These treatment conditions were compared to control (no MDJ, no biological). Each treatment group had 8 replicates. […]

[1] = test system: bunch rot (Botrytis cinerea); experiment: Vineyard trial, MDJ on cabernet sauvignon grapes, laccase analysed as measure of Botrytis prevalence; settings: MDJ approx. 5 mM, 50 gallons per acre, four applications, control = grower standard
Procedure: Methyl dihydrojasmonate (MDJ) was applied to fields of grape to investigate the efficacy of MDJ in preventing bunch rot on (Botrytis cinerea) and powdery mildew (Erysiphe necator) on grapes. A composition comprising 22.6% w/v MDJ, 49.8% v/v TWEEN-20, and water was diluted at a rate of 32 oz. (1 liter) per 50 gallons of water (approximately a 5 mM solution of MDJ). The composition was then applied (at a rate of 50 gallons per acre) to three acres (1245 vines/acre) of a cabernet sauvignon variety grown in Napa Valley, CA. There was a total of four applications between June and September using a ground spray rig. To investigate the prevalence of Botrytis, the enzyme laccase was analyzed. Laccase can negatively impact wine by causing premature browning of bottled white wine and color degradation in red wine. The MDJ treated group had 2 units/ml, whereas the control (grower standard) had 5 units/ml. This level in the control means that Botrytis problems can be expected during the wine making process, whereas in the MDJ treated group, the value of 2 units/ml means there will be no issues with Botrytis during the wine making process.

[2] = test system: powdery mildew (Erysiphe necator); experiment: Vineyard trial, MDJ on cabernet sauvignon grapes, powdery mildew on leaf and fruit samples under the microscope; settings: MDJ approx. 5 mM, 50 gallons per acre, four applications; grape leaf and fruit samples
Procedure: Methyl dihydrojasmonate (MDJ) was applied to fields of grape to investigate the efficacy of MDJ in preventing bunch rot on (Botrytis cinerea) and powdery mildew (Erysiphe necator) on grapes. A composition comprising 22.6% w/v MDJ, 49.8% v/v TWEEN-20, and water was diluted at a rate of 32 oz. (1 liter) per 50 gallons of water (approximately a 5 mM solution of MDJ). The composition was then applied (at a rate of 50 gallons per acre) to three acres (1245 vines/acre) of a cabernet sauvignon variety grown in Napa Valley, CA. There was a total of four applications between June and September using a ground spray rig. Several leaf and fruit samples were collected to access the presence of powdery mildew under the microscope and compared to leaf and fruit of plants treated with the grower standard.

CCCCCC1C(=O)CCC1CC(=O)OC (stereo not drawn) [MDJ, methyl dihydrojasmonate]
Average % incidence of Botrytis on berries (Botrytis; average of four replicates of 10 plants each): 11% | % incidence of Botrytis (Botrytis; single replicates 1-4, 10 plants each, strawberry berries): 10% and 16% and 7% and 11% | Average Disease Score (Botrytis cinerea; condition B: 1 mM MDJ foliar spray): 2.625 | Average Disease Score (Botrytis cinerea; condition C: 5 mM MDJ foliar spray): 2.250 | Laccase [1]: 2 units/ml | Control of powdery mildew compared to grower standard [2]: the same, or better, control of powdery mildew as the grower standard
